These are literature values, as cited in PMC10261210 (Cancer Chemotherapy and Pharmacology, 2023).

Data set [1] deals with neural progenitor cells transformed with KIAA1549-BRAF fusion protein. Also noted: method as in PMID 28082416. The settings on record: cited from earlier work.
Data set [2] deals with BRAF V600 mutant melanoma xenografts. Also noted: method as in doi:10.1016/S1359-6349(10)71810-3. The settings on record: mice; tumors remaining sensitive to a second dosing cycle; cited from earlier work.

`C[C@@H](NC(=O)c1ncnc(N)c1Cl)c1ncc(C(=O)Nc2cc(C(F)(F)F)c(Cl)cn2)s1` [tovorafenib]: the “paradoxical activation of ERK signaling” value in data set [1] is listed as “not to trigger paradoxical activation of ERK signaling”. Further, the “effect on large, established xenograft tumors” value in data set [2] is recorded as “caused tumor regression”.
